{"source": "patent US20100055217A1", "about": "“COSMETIC COMPOSITION COMPRISING A COMBINATION OF LIPOCHROMAN-6 AND AN EXTRACT OF LONGOZA, AND ITS USE” (LVMH RECHERCHE, priority 2008, published 2010)", "test_system": "oxidized proteins of normal human keratinocytes (NHK)", "assay": "Level of oxidized proteins of epidermal cells (DNPH/anti-DNP immunostaining, confocal image analysis)", "assay_type": "cell-based", "settings": "for Proportion of oxidized proteins/cell, KHN 0002: NHK donor KHN 0002; for Proportion of oxidized proteins/cell, KHN 0002 / Proportion of oxidized proteins/cell, KHN 9726: 48 h treatment; for Proportion of oxidized proteins/cell, KHN 9726: NHK donor KHN 9726; for DNP marking/no. of cells / DNP marking/surface area measured / Surface area of DNP marking: NHK; for DNP marking/no. of cells / DNP marking/surface area measured / Surface area of DNP marking / Proportion of oxidized proteins/cell, Average / Reduction %/control: 48 h; for Proportion of oxidized proteins/cell, Average / Reduction %/control: average of both NHK donors; for Reduction %/control: vs control excipient", "procedure": "Normal human keratinocytes (NHK) isolated from two samplings of humans skin from two different donors, and referred to hereinafter as KHN002 and KHN9726, are cultured in T75 flasks in complete KSFM medium (Invitrogen GIBCO) at 37° C. and 5% of CO2, and are seeded at 20 000 cells per well in 8-well Lab-Tek II culture systems (Nalge Nunc International).\nAfter 48 h of culture, the cells are treated with the treatment solutions (see below).\nA solution of Lipochroman-6 at 0.004% by weight per volume (w/v) is prepared (solution A).\nThis is done by dissolving 20 mg of lipochroman-6 powder (supplier: Lipotec) in 2 ml of ethanol (solution at 10 mg/ml). This solution is diluted (40 μl of the stock solution in 10 ml of KSFm medium) to give solution A.\nFurthermore, a solution of Longoza at 0.2% w/v in the KSFMc medium is prepared (solution B), from the 1% w/v solution prepared in accordance with step g) of Example 1. The 1% w/v Longoza extract solution is diluted ([…] of the 1% w/v solution in 6 ml of KSFm medium) to give said solution B.\nThe treatment solutions are prepared by diluting solutions A and B, prepared above, in the KSFMc medium to give the correct percentage of each of the actives of the combination (% expressed by weight per volume).\nEach treatment is carried out on 3 wells per cell type. • control: KSFMc • solvent control: ethanol 0.1% in KSFMc medium • lipochroman 0.001% • lipochroman 0.002% • lipochroman 0.001%+Longoza 0.05% • lipochroman 0.001%+Longoza 0.1% • lipochroman 0.002%+Longoza 0.05% • lipochroman 0.002%+Longoza 0.1%\nAfter 48 hours of treatment, the KSFM medium is drawn off.\nThe cells are rinsed with PBS (PBS Tablets, Invitrogen GIBCO), and then fixed on slides by means of formaline (Formalin Solution 10% Neutral Buffered, Sigma) for 10 minutes at ambient temperature. After rinsing with PBS, the culture chambers are filled with a 0.1% Triton solution (Triton X-100, Sigma) for 10 minutes and then rinsed with PBS.\nThe culture chambers are subsequently disassembled and the slides are immersed in a solution of 2,4-dinitrophenylhydrazine (300 mg of DNPH (Fluka) in an ethanol/sulphuric acid mixture (98.5 ml/1.5 ml)) for 30 minutes.\nThe DNPH reacts with the carbonyl groups of the oxidized proteins in accordance with the following reaction:\nThe slides are rinsed ten times with PBS. The cells are then covered with a solution of PBS/BSA at 1% (10 g/l) by weight at ambient temperature for 30 minutes.\nThe dinitrophenyl (DNP) groups bound to the oxidized proteins are recognized by a primary anti-DNP antibody.\nFor this purpose, in a first step, the slides are covered with a solution of primary antibody (monoclonal mouse anti-DNP antibody, Sigma), diluted at 1/500 th in a PBS/BSA 1% solution, and are incubated for 60 minutes at ambient temperature in an oven, then rinsed with a PBS-Tween0.1% (Tween20, Merck) solution.\nIn a second step, the cells are covered with a solution of secondary antibody (Alexafluor 546 Goat anti-mouse, Invitrogen) in a PBS/BSA 1% by weight solution, and are incubated in the absence of light for 60 minutes. The slides are subsequently rinsed with PBS-Tween and then with PBS.\nIn a third step, a few drops of aqueous mounting medium (Fluorescent Mounting Medium, DAKO, S 3023) are applied to the slides, which are subsequently stored at 4° C. in the dark.\nThe photographs are taken by confocal microscopy (Axioplan microscope, Zeiss, and Krypton-Argon Laser, BioRad) with the aid of the LaserSharp 2000 software (BioRad). For each condition, three photos are taken with the x40 lens, with the same acquisition parameters (gain, iris).\nThe excitation wavelength of the fluorochrome is 546 nm and the emission wavelength is 573 nm.\nIn practice, an exciting fluorescence at […] is applied by the confocal laser to the cells. The fluorochrome Alexafluor 546, which represents the oxidized proteins, emits fluorescence at 573 nm, which is recovered by a specific filter and can be observed. […]"}
{"smiles": "COc1cc2c(cc1O)CCC(C)(C)O2", "note": "[lipochroman-6]", "values": [{"measurement": "Proportion of oxidized proteins/cell, KHN 0002", "setting": "lipochroman-6 0.001% w/v", "value": 76.3}, {"measurement": "Proportion of oxidized proteins/cell, KHN 0002", "setting": "lipochroman-6 0.002% w/v", "value": 60.9}, {"measurement": "Proportion of oxidized proteins/cell, KHN 9726", "setting": "lipochroman-6 0.001% w/v", "value": 88}, {"measurement": "Proportion of oxidized proteins/cell, KHN 9726", "setting": "lipochroman-6 0.002% w/v", "value": 43}, {"measurement": "DNP marking/no. of cells", "setting": "Lipochroman 0.001%", "value": 82.1}, {"measurement": "DNP marking/surface area measured", "setting": "Lipochroman 0.001%", "value": 28.7, "unit": "%"}, {"measurement": "Surface area of DNP marking", "setting": "Lipochroman 0.001%", "value": 3776}, {"measurement": "DNP marking/no. of cells", "setting": "Lipochroman 0.002%", "value": 52.0}, {"measurement": "DNP marking/surface area measured", "setting": "Lipochroman 0.002%", "value": 18.4, "unit": "%"}, {"measurement": "Surface area of DNP marking", "setting": "Lipochroman 0.002%", "value": 2415}, {"measurement": "Proportion of oxidized proteins/cell, Average", "setting": "lipochroman-6 0.001% w/v", "value": 82.1}, {"measurement": "Reduction %/control", "setting": "lipochroman-6 0.001% w/v", "value": "−19.43", "unit": "%"}, {"measurement": "Proportion of oxidized proteins/cell, Average", "setting": "lipochroman-6 0.002% w/v", "value": 52}, {"measurement": "Reduction %/control", "setting": "lipochroman-6 0.002% w/v", "value": "−48.97", "unit": "%"}]}
